Values joined by “and” are separate entries in the source; they are usually repeats but may differ in a detail not shown here. Identical values can stand only once.
Key:
[1] = In vitro liver microsome assay, mouse; type: in vitro ADME; conditions: pooled liver microsomes
[2] = In vitro liver microsome assay, human; type: in vitro ADME; conditions: pooled liver microsomes
[3] = test system: T. b. brucei (strain BF427); assay: T. brucei growth inhibition assay; type: cell-based; conditions: T. b. brucei BF427, 48 h, Alamar Blue
[4] = test system: HepG2 cells (human hepatocellular carcinoma); assay: Cytotoxicity in mammalian cells, HepG2; type: cell-based; conditions: human hepatocytes, 48 h, growth inhibition by 50%
[5] = Mouse oral pharmacokinetics; type: in vivo; conditions: mice, 50 mg/kg oral, Tween 80/EtOH/DMSO vehicle
[6] = Brain:plasma compound concentration measurements in mice, 1 h post ip dose; type: in vivo; conditions: single ip dose 5 mg/kg, 1 h postdose
[7] = Brain time-course experiment of compound 57 after oral dosing; type: in vivo; conditions: mice, single oral dose 50 mg/kg
[8] = Efficacy PK in acute model; type: in vivo, mice; conditions: 50 mg/kg po b.i.d., prior to dose 7 (predose)
[9] = Efficacy PK in chronic model; type: in vivo, mice; conditions: 50 mg/kg po b.i.d., prior to dose 15 (predose)
[10] = test system: CRL-8155 (human lymphoblasts); assay: Cytotoxicity in mammalian cells, CRL-8155; conditions: 48 h, growth inhibition by 50%

Compound: O=C(Nc1ccc2oc(-c3ccccc3)nc2c1)c1ccccc1 [Compound 30]
- half-life at 1.5 μM [1]: 10 to 20 min
- half-life at 1.5 μM [2]: ≥ 60 min

Compound: O=C(Nc1ccc2sc(-c3cccc(F)c3)nc2c1)N1CCN(C(=O)Nc2ccc3sc(-c4cccc(F)c4)nc3c2)CC1 [Compound 49]
- T. brucei EC50 [3]: No activity was detected

Compound: O=C(Nc1ccc2sc(-c3ccccc3)nc2c1)N1CCCC1 [Compound 38]
- half-life at 1.5 μM [1]: > 20 min

Compound: O=C(Nc1ccc2sc(-c3ccccc3)nc2c1)N1CCCCC1 [Compound 40]
- half-life at 1.5 μM [1]: > 20 min

Compound: O=C(Nc1ccc2sc(-c3ccc(F)c(F)c3)nc2c1)N1CC[C@H](F)C1 [Compound 57, (S)-2-(3,4-Difluorophenyl)-5-(3-fluoro-N-pyrrolidylamido)-benzothiazole]
- HepG2 EC50 [4]: no detectable toxicity
- percent of Cmax remaining at the 24 h time point [5]: Less than 1%
- [compd]brain [6]: 9.07 µM and 9.07 ± 3.973 µM
- Cmax, brain [7]: 54.84 ± 4.64 µM
- [compd]brain ([7]; 24 h): submicromolar
- [compd]plasma ([7]; 24 h, LLQ is 0.010 μM, 50 mg/kg): undetectable
- average plasma level [8]: 9.1 ± 7.6 µM
- average plasma level [9]: 15.8 ± 8.7 µM
- CRL-8155 EC50 [10]: no detectable toxicity

Compound: O=C(Nc1ccc2oc(-c3ccccc3)nc2c1)N1CCCCC1 [Compound 32]
- half-life at 1.5 μM [1]: 10 to 20 min
- half-life at 1.5 μM [2]: ≥ 60 min

Compound: O=C(Nc1ccc2sc(-c3ccc(F)c(F)c3)nc2c1)N1C[C@@H](F)[C@H](F)C1 [Compound 59]
- percent of Cmax remaining at the 24 h time point [5]: 34%
- percent of Cmax remaining at the 32 h time point [5]: > 17%

From PMC5362113 (Journal of medicinal chemistry, 2016)
